This passage reports Activity and PFU/ml results from ChEMBL document CHEMBL1154501, “2/4-Substituted-9-fluorenones and their O-glucosides as potential immunomodulators and anti-herpes simplex virus-2 agents. Part 5” (Eur J Med Chem, 2008).

Series [1] deals with PBMC. Nature of the series: Cytotoxicity against human PBMC at 60 ug/mL after 48 hrs by MTT assay. Format: cell-based. On the technique in general: Tetrazolium dyes change colour on reduction, which living cells bring about.
The test system of series [2] is PBMC. Nature of the series: Cytotoxicity against human PBMC at 40 ug/mL after 48 hrs by MTT assay. Format: cell-based.
Series [3] concerns PBMC. Kind of series: Cytotoxicity against human PBMC at 20 ug/mL after 48 hrs by MTT assay. It counts as cell-based.
The subject of series [4] is Human alphaherpesvirus 2. Kind of series: Antiviral activity against HSV2 in human PBMC assessed as inhibition of viral replication at 40 ug/mL. It counts as functional.
The test system of series [5] is Human alphaherpesvirus 2. Kind of series: Antiviral activity against HSV2 in human PBMC assessed as inhibition of viral replication at 20 ug/mL. It counts as functional.
Series [6] concerns PBMC. Nature of the series: Induction of IFNalpha release in human PBMC at 20 ug/mL after 24 hrs by ELISA. It counts as functional. Background: An ELISA detects its analyte on a solid surface through an enzyme-linked reagent.
Series [7] concerns PBMC. Kind of series: Induction of IFNalpha release in human PBMC at 20 ug/mL after 48 hrs by ELISA. Format: functional.
Series [8] deals with PBMC. Kind of series: Induction of TNFalpha release in human PBMC at 20 ug/mL after 24 hrs by ELISA. It counts as functional.
The test system of series [9] is PBMC. Kind of series: Induction of TNFalpha release in human PBMC at 20 ug/mL after 48 hrs by ELISA. It counts as functional.
Series [10] deals with PBMC. Kind of series: Induction of IFNalpha release in human PBMC at 40 ug/mL after 24 hrs by ELISA. Format: functional.
In series [11] the test system is PBMC. Nature of the series: Induction of IFNalpha release in human PBMC at 40 ug/mL after 48 hrs by ELISA. Format: functional.
The test system of series [12] is PBMC. Nature of the series: Induction of TNFalpha release in human PBMC at 40 ug/mL after 24 hrs by ELISA. It counts as functional.
For series [13], the system named is PBMC. Kind of series: Induction of TNFalpha release in human PBMC at 40 ug/mL after 48 hrs by ELISA. Format: functional.

Regarding `O=C(NCCOCCO)c1ccc2c(c1)C(=O)c1ccccc1-2`, the Activity in the series with PBMC [1] is 4%; in the series on PBMC [2] it was 0%; with PBMC [3], 0%; with PBMC [6] it was below 4.8 pg/mL; with PBMC [7] it was 21 pg/mL; in the series on PBMC [8], below 5.8 pg/mL. Besides, the Activity with PBMC [9] was determined as 17 pg/mL; with PBMC [10] it was 6 pg/mL; with PBMC [11], 38 pg/mL; in the series with PBMC [12], 24 pg/mL; in the series on PBMC [13] it was 48 pg/mL. Also, the PFU/ml with Human alphaherpesvirus 2 [4] is 3900; in the series with Human alphaherpesvirus 2 [5], 5300.
Turning to `O=C(NCCOCCO[C@@H]1O[C@H](CO)[C@@H](O)[C@H](O)[C@H]1O)c1ccc2c(c1)C(=O)c1ccccc1-2`, the Activity in the series with PBMC [1] was 6%; with PBMC [2], 0%; with PBMC [3] it was 0%; in the series on PBMC [6] it was below 4.8 pg/mL; in the series with PBMC [7], 17 pg/mL; in the series with PBMC [8], 9 pg/mL. The Activity in the series on PBMC [9] was found to be 31 pg/mL; in the series with PBMC [10] it was 8 pg/mL; with PBMC [11] it was 31 pg/mL; in the series with PBMC [12], 13 pg/mL; with PBMC [13], 39 pg/mL. Also, the PFU/ml came out at 36000 with Human alphaherpesvirus 2 [4] and 49000 in the series with Human alphaherpesvirus 2 [5].
In the case of `O=C(NCCCO)c1ccc2c(c1)C(=O)c1ccccc1-2`, the Activity is 15% in the series with PBMC [1]; 0% with PBMC [2]; 0% in the series on PBMC [3]; below 4.8 pg/mL in the series with PBMC [6]; 7 pg/mL in the series on PBMC [7]; below 5.8 pg/mL in the series on PBMC [8]. Besides, the Activity with PBMC [9] amounted to 40 pg/mL; with PBMC [10] it was 13 pg/mL; in the series on PBMC [11], 37 pg/mL; in the series on PBMC [12], 27 pg/mL; in the series on PBMC [13] it was 51 pg/mL. Also, the results for the PFU/ml in the series on Human alphaherpesvirus 2 [4] and in the series on Human alphaherpesvirus 2 [5] were 4100 and 6500, respectively.
Regarding `O=C(NCCOCCO[C@@H]1O[C@H](CO)[C@@H](O[C@H]2O[C@H](CO)[C@@H](O)[C@H](O)[C@H]2O)[C@H](O)[C@H]1O)c1ccc2c(c1)C(=O)c1ccccc1-2`, the Activity in the series on PBMC [1] was 18%; in the series with PBMC [2] it was 0%; with PBMC [3] it was 0%; with PBMC [6], below 4.8 pg/mL; in the series on PBMC [7] it was 10 pg/mL; in the series on PBMC [8], below 5.8 pg/mL. Also, the Activity is 18 pg/mL in the series with PBMC [9]; below 4.8 pg/mL in the series on PBMC [10]; 30 pg/mL with PBMC [11]; below 5.8 pg/mL in the series on PBMC [12]; 27 pg/mL in the series with PBMC [13]. Besides, the PFU/ml amounted to 32000 in the series on Human alphaherpesvirus 2 [4] and 53000 with Human alphaherpesvirus 2 [5].
As for `O=C(OCCCCO[C@@H]1O[C@H](CO[C@H]2O[C@H](CO)[C@@H](O)[C@H](O)[C@H]2O)[C@@H](O)[C@H](O)[C@H]1O)c1cccc2c1-c1ccccc1C2=O`, the Activity in the series with PBMC [1] is 52%; in the series with PBMC [2], 29%; in the series with PBMC [3] it was 0%; in the series with PBMC [6] it was below 4.8 pg/mL; in the series with PBMC [7], 9 pg/mL; in the series with PBMC [8], below 5.8 pg/mL. In the series on PBMC [9], this compound yielded an Activity of 15 pg/mL. For the same compound, in the series on Human alphaherpesvirus 2 [5], the PFU/ml turned out to be 68000.
Take `O=C(OCCCCO)c1cccc2c1-c1ccccc1C2=O`: the Activity in the series with PBMC [1] is 38%; in the series on PBMC [2], 21%; with PBMC [3] it was 0%; in the series with PBMC [6] it was below 4.8 pg/mL; in the series with PBMC [7], 12 pg/mL; in the series with PBMC [8], below 5.8 pg/mL. In addition, the Activity in the series on PBMC [9] turned out to be 6 pg/mL. For the same compound, in the series on Human alphaherpesvirus 2 [5], the PFU/ml is given as 71000.
For the compound `O=C(NCCOCCOC1O[C@H](COC2O[C@H](CO)[C@@H](O)[C@H](O)[C@H]2O)[C@@H](O)[C@H](O)[C@H]1O)c1ccc2c(c1)C(=O)c1ccccc1-2` (single isomer, unassigned), the Activity with PBMC [1] is 21%; in the series on PBMC [2], 0%; in the series on PBMC [3] it was 0%; in the series with PBMC [6], below 4.8 pg/mL; in the series with PBMC [7], 14 pg/mL; with PBMC [8] it was below 5.8 pg/mL. The Activity in the series on PBMC [9] is 16 pg/mL; in the series on PBMC [10], below 4.8 pg/mL; with PBMC [11], 25 pg/mL; in the series with PBMC [12], below 5.8 pg/mL; in the series on PBMC [13], 21 pg/mL. In addition, the PFU/ml was 35000 in the series on Human alphaherpesvirus 2 [4] and 42000 in the series on Human alphaherpesvirus 2 [5].
As to `O=C(OCCCCO[C@@H]1O[C@H](CO)[C@@H](O[C@H]2O[C@H](CO)[C@@H](O)[C@H](O)[C@H]2O)[C@H](O)[C@H]1O)c1cccc2c1-c1ccccc1C2=O`, the Activity is 69% in the series on PBMC [1], 37% with PBMC [2] and 26% in the series with PBMC [3].
The corresponding values for `O=C(OCCCCO[C@H]1O[C@H](CO)[C@@H](O)[C@H](O)[C@H]1O)c1cccc2c1-c1ccccc1C2=O` are 57%, 38% and 22%.
With `O=C(NCCO)c1ccc2c(c1)C(=O)c1ccccc1-2`, the Activity is 2% in the series on PBMC [1]; 0% with PBMC [2]; 0% with PBMC [3]; below 4.8 pg/mL in the series on PBMC [6]; 11 pg/mL in the series on PBMC [7]; below 5.8 pg/mL in the series on PBMC [8]. Further, the Activity was 13 pg/mL in the series on PBMC [9]; 9 pg/mL in the series on PBMC [10]; 29 pg/mL in the series on PBMC [11]; 14 pg/mL in the series on PBMC [12]; 36 pg/mL in the series with PBMC [13]. The PFU/ml came to 37000 with Human alphaherpesvirus 2 [4] and 48000 in the series with Human alphaherpesvirus 2 [5].
On to `O=C(OCCCCO[C@H]1O[C@H](CO[C@H]2O[C@H](CO[C@H]3O[C@H](CO)[C@@H](O)[C@H](O)[C@H]3O)[C@@H](O)[C@H](O)[C@H]2O)[C@@H](O)[C@H](O)[C@H]1O)c1cccc2c1-c1ccccc1C2=O`, for which the Activity was 42% in the series with PBMC [1]; 19% in the series with PBMC [2]; 0% in the series with PBMC [3]; below 4.8 pg/mL with PBMC [6]; 14 pg/mL in the series with PBMC [7]; below 5.8 pg/mL with PBMC [8]. In the series on PBMC [9], this compound returned an Activity of 9 pg/mL. Also, the PFU/ml with Human alphaherpesvirus 2 [5] is 70000.
As for `O=C(OCCCO)c1cccc2c1-c1ccccc1C2=O`, the Activity in the series with PBMC [1] is 41%; in the series with PBMC [2] it was 22%; with PBMC [3] it was 0%; in the series on PBMC [6], below 4.8 pg/mL; in the series with PBMC [7], 8 pg/mL; in the series on PBMC [8], below 5.8 pg/mL. In the series with PBMC [9], this compound showed an Activity of 11 pg/mL. Also, in the series on Human alphaherpesvirus 2 [5], the PFU/ml was found to be 60000.
Consider `O=C(OCCO)c1cccc2c1-c1ccccc1C2=O`, for which the Activity was 14% with PBMC [1]; 6% in the series on PBMC [2]; 0% in the series with PBMC [3]; below 4.8 pg/mL with PBMC [6]; 16 pg/mL with PBMC [7]; below 5.8 pg/mL with PBMC [8]. This compound also came in with an Activity with PBMC [9] of 21 pg/mL. For the same compound, in the series on Human alphaherpesvirus 2 [5], the PFU/ml is 58000.
With `O=C(NCCCCO)c1ccc2c(c1)C(=O)c1ccccc1-2`, the values for the Activity in the series on PBMC [1], with PBMC [2] and in the series on PBMC [3] were 45%, 28% and 20%, respectively.
On to `O=C(NCCOCCO[C@H]1O[C@H](CO)[C@@H](O)[C@H](O)[C@H]1O)c1ccc2c(c1)C(=O)c1ccccc1-2`, for which the Activity was 16% in the series with PBMC [1]; 0% in the series with PBMC [2]; 0% in the series on PBMC [3]; below 4.8 pg/mL in the series with PBMC [6]; 17 pg/mL in the series on PBMC [7]; below 5.8 pg/mL in the series with PBMC [8]. The Activity in the series on PBMC [9] was 14 pg/mL; in the series on PBMC [10] it was below 4.8 pg/mL; in the series with PBMC [11], 31 pg/mL; in the series with PBMC [12] it was below 5.8 pg/mL; in the series on PBMC [13] it was 30 pg/mL. Moreover, the PFU/ml is reported as 34000 with Human alphaherpesvirus 2 [4] and 60000 in the series with Human alphaherpesvirus 2 [5].
Turning to `CC(O)CNC(=O)c1ccc2c(c1)C(=O)c1ccccc1-2` (stereo unspecified), the Activity is 5% in the series with PBMC [1]; 0% in the series on PBMC [2]; 0% in the series on PBMC [3]; below 4.8 pg/mL with PBMC [6]; 18 pg/mL in the series with PBMC [7]; below 5.8 pg/mL in the series with PBMC [8]. Besides, the Activity amounted to 20 pg/mL in the series on PBMC [9]; 21 pg/mL in the series on PBMC [10]; 45 pg/mL with PBMC [11]; 14 pg/mL in the series on PBMC [12]; 33 pg/mL in the series with PBMC [13]. The PFU/ml amounted to 3500 with Human alphaherpesvirus 2 [4] and 6000 in the series on Human alphaherpesvirus 2 [5].
As to `O=C(OCCCCO[C@@H]1O[C@H](CO)[C@@H](O)[C@H](O)[C@H]1O)c1cccc2c1-c1ccccc1C2=O`, the Activity with PBMC [1] was 7%; in the series on PBMC [2], 0%; with PBMC [3], 0%; in the series on PBMC [6], below 4.8 pg/mL; with PBMC [7], 10 pg/mL; in the series on PBMC [8] it was below 5.8 pg/mL. Also, the Activity in the series with PBMC [9] is 18 pg/mL; in the series with PBMC [10], below 4.8 pg/mL; with PBMC [11], 29 pg/mL; in the series with PBMC [12] it was below 5.8 pg/mL; in the series with PBMC [13], 30 pg/mL. The PFU/ml is given as 36000 in the series with Human alphaherpesvirus 2 [4] and 78000 with Human alphaherpesvirus 2 [5].
